Measurements taken from patent US11369609B2, “Small molecule Wnt inhibitor as treatment for dyslipidemia” (Yale University, priority 2019, dated 2022).
“Also recorded” adds a separate entry of the source.

How the values were obtained:
kidney endothelial cells [1] = experiment: Fatty acid uptake in isolated kidney endothelial cells; assay type: in vivo; conditions: diabetic mice, radiolabeled [14C]palmitate uptake
Experimental: (§1) Endothelial cells from the kidneys of non-diabetic and diabetic mice were isolated using a standardized kit (Miltenyl Biotech, USA) by following the manufacturer's instructions. Briefly, kidneys were isolated and minced into small pieces. Using a series of enzymatic reactions by treating the tissue with trypsin and Collagenase type I solution, a single cell suspension was created. The pellet was dissolved with CD31 magnetic beads and the CD31-labelled cells were separated on a magnetic separator. The cells were further purified on a column. Cell number was counted by hemocytometer and cells were plated on 0.1% gelatin coated Petri dishes.
Cultured isolated kidney endothelial cells were incubated with medium containing 2 μCi [^14C]palmitate. [^14C]-palmitate uptake was measured by liquid scintillation counting.
It is increasingly recognized that defects in central metabolism contribute to kidney fibrosis (69, 76). Defective FA metabolism in EC leads to EndMT events (77). To investigate whether FA metabolism was deranged in the model, radiolabeled [^14C]palmitate uptake experiments were performed in isolated EC from mouse kidneys. […] FA oxidation (FAO) was also assessed by measuring the ^14CO2 release from radiolabeled [^14C]palmitate in cultured EC isolated from kidneys. […]

canonical Wnt signaling [2] = experiment: Atherosclerosis in high fat diet-fed Apoe−/− and DKO TCF/Lef-LacZ mice; assay type: in vivo
Excerpt: Apoe −/− and endothelial GR KO/Apo E KO double knockout (DKO) mice were fed a high fat diet containing 1.25% cholesterol (Research Diets) for the time indicated. In some experiments, animals of both genotype were bred to the BAT-GAL (ß-catenin/TCF/LEF) reporter transgenic mouse. Mice were sacrificed and the aortas removed. Aortas were stained with X-galactosidase (Sigma-Aldrich) according to the manufacturer's instructions. In other aortas, total RNA was extracted and cDNA was made as described above. The custom PCR array was used to evaluate pathways of interest as described. All studies were performed according to a protocol approved by the Institutional Care and use Committee at Yale University School of Medicine and were consistent with the National Institutes of Health Guidelines for the Care of Laboratory Animals.
Mice were fasted for 12-15 hours and blood was collected by retro-orbital venous puncture. Whole blood was spun down and plasma stored at −80° C. Total cholesterol and triglyceride levels were measured enzymatically by kits from Wako and Sigma, respectively, according to the manufacturer's instructions.
At the completion of high-fat diet feeding mice were anesthetized and euthanized. Mouse hearts were perfused with PBS and then 4% paraformaldehyde (PFA) and the aortas and were dissected out using a dissecting microscope and maintained in PFA overnight. Whole aortas were stained with Oil Red O (Sigma) to quantify lesion area. Oil Red O stock solution (35 ml, 0.2% weight/volume in methanol) was mixed with 10 ml 1 M NaOH and filtered. Aortas were briefly rinsed in 78% methanol, incubated in Oil Red O for 45 minutes and then destained in 78% methanol for 5 minutes and mounted on microscopic slides. Lipid staining and lesion size were quantified by averaging six sections from the same mouse using the IMAGE J program.
In order to visualize the activation of canonical Wnt signaling, Apoe^−/−, GR^fl/fl, Tie2 Cre−; TCF/Lef-LacZ (Apoe^−/−) mice were bred with Apoe^−/−, GR^fl/fl, Tie2 Cre+; TCF/Lef-LacZ (DKO) mice. Apoe^−/− and DKO mice were fed a high fat diet (HFD) for 12 weeks. The Wnt inhibitor (wnti) LGK974 at a dose of 5 mg/kg body weight, or vehicle, was administered 6 days/week by oral gavage from 4-12 weeks. The aortas of vehicle-treated control animals and wnti-treated animals (n=6-7/group) were stained for LacZ (FIG. 11B). A LacZ(−) aorta was included as a control. […] Aortic area stained is quantified in the corresponding graph (FIG. 11B). Body weight of the animals of both genotypes with and without Wnti treatment was measured. […] Triglycerides, total cholesterol and HDL cholesterol were measured after 12 weeks of diet feeding in animals of both genotypes in the presence of absence of Wnti. […] Lipid deposition in aortas of wnti- or vehicle-treated Apoe^−/− and DKO treated mice was analyzed by Oil Red O staining. Atherogenic lesion area was calculated by using the Image J program. […] Masson Trichrome and H&E staining was performed in the brachiocephalic artery of Wnti- or sham-treated Apoe^−/− and DKO treated mice (FIG. 11F). Lesion size was measured using Image J program.

kidney endothelial cells [3] = experiment: Fatty acid oxidation (14CO2 release from [14C]palmitate) in isolated kidney endothelial cells; assay type: in vivo, mice; conditions: diabetic CD-1 mice, Wnt inhibitor
Experimental: as §1
Cultured isolated kidney endothelial cells were incubated with medium containing 0.75 mmol/L palmitate (conjugated to 2% free fatty acid-free BSA/[^14C] palmitate at 2 μCi/mL) for 2 h. One mL of the culture medium was transferred to a sealable tube, the cap of which housed a Whatman filter paper disc. ^14CO2 trapped in the media was then released by acidification of media using 60% perchloric acid. Radioactivity that had become adsorbed onto the filter discs was then quantified by liquid scintillation counting.
It is increasingly recognized that defects in central metabolism contribute to kidney fibrosis (69, 76). Defective FA metabolism in EC leads to EndMT events (77). To investigate whether FA metabolism was deranged in the model, radiolabeled [^14C]palmitate uptake experiments were performed in isolated EC from mouse kidneys. FA uptake was higher in isolated EC from the diabetic kidneys of the more fibrotic strain (diabetic CD-1) when compared to kidney EC from the less-fibrotic strain (diabetic C57BL/6). […] FA oxidation (FAO) was also assessed by measuring the ^14CO2 release from radiolabeled [^14C]palmitate in cultured EC isolated from kidneys. […] In the next set of experiments, diabetic CD-1 mice were treated with the FA synthase inhibitor C75, the FAO inhibitor etomoxir, the PPARα agonist fenofibrate, and the cholesterol-lowering drug simvastatin for 4 weeks. […] (FIG. 23A). Fenofibrate and C75 restored the level of GR protein in CD31 positive cells, whereas etomoxir and simvastatin suppressed it (FIG. 23B).

canonical Wnt signaling [4] = experiment: Plasma cytokine array analysis (Luminex) in wnti-treated diabetic mice; assay type: in vivo
Experimental: FIG. 22. […] Cytokines and chemokines were measured in plasma by using the cytokine array analysis (Luminex). The plasma of wnti-treated diabetic mice was analyzed for cytokine array analysis. N=5/group. Data are shown as mean±SEM. Tukey test was used for the analysis of statistical significance. *p<0.05.
To determine whether inhibition of the Wnt signaling pathway could ameliorate the observed fibrosis, LGK974, a small molecule inhibitor of all secreted Wnts (43), was utilized. FIGS. 21A-21B depict the schematic diagram showing the experimental protocol for LGK974 treatment in diabetic CD-1 and UUO mice.

[5] = 5 mg/kg oral gavage 6 days/week, weeks 4-12 of HFD, both genotypes

Cc1cc(-c2ncc(CC(=O)Nc3ccc(-c4cnccn4)cn3)cc2C)ccn1 [LGK974]
FA uptake in isolated kidney EC (kidney endothelial cells [1]): suppressed FA uptake
atherosclerosis prognosis / atherogenic phenotype (canonical Wnt signaling [2]; 5 mg/kg oral gavage 6 days/week, weeks 4-12 of HFD): significantly improves the atherogenic phenotype; also recorded: surprising improvement in atherosclerosis prognosis
activation of canonical Wnt signaling (LacZ staining in aortas) (canonical Wnt signaling [2]; [5]): clearly attenuated
body weight (canonical Wnt signaling [2]; [5]): no weight loss
lesion size in brachiocephalic arteries (canonical Wnt signaling [2]; Masson Trichrome and H&E staining): dramatically reduced lesion size
cholesterol (canonical Wnt signaling [2]; after 12 weeks of HFD, both genotypes): dramatic reduction in cholesterol; also recorded: enormous
lipid deposition in aortas (Oil Red O staining) (canonical Wnt signaling [2]; both genotypes): dramatic reduction in lipid deposition
decrease in cholesterol levels (canonical Wnt signaling [2]; in vivo use in atherogenic mouse model): about 50%
H&E and Oil Red O staining in the aortic root of heart sections (canonical Wnt signaling [2]; mouse, in vivo): histological improvement
level of FAO in isolated kidney EC (kidney endothelial cells [3]): able to restore the level of FAO
cytokine- and chemokine reprogramming in plasma (canonical Wnt signaling [4]): disrupts the cytokine- and chemokine reprogramming
plasma CCL4 level (canonical Wnt signaling [4]): significantly suppressed
plasma CCL5 level (canonical Wnt signaling [4]): elevating
plasma G-CSF level (canonical Wnt signaling [4]): significantly suppressed
plasma IL-1β level (canonical Wnt signaling [4]): significantly suppressed
plasma IL-6 level (canonical Wnt signaling [4]): significantly suppressed
plasma IL-10 level (canonical Wnt signaling [4]): significantly suppressed
plasma MCP-1 level (canonical Wnt signaling [4]): significantly suppressed
plasma TNFα level (canonical Wnt signaling [4]): significantly suppressed
